What all share (assay type): cell-based
The subject of assay [1] is P. rettgeri A22424. The assay is described as follows: In vitro MIC by tube dilution, P. rettgeri A22424. As to conditions: Providencia rettgeri, A22424, P. rettgeri A22424; read-out: MIC.
Assay [2] deals with S. aureus A-9537. Put plainly: In vitro MIC by tube dilution, S. aureus A-9537. Conditions: Staphylococcus aureus, read-out: MIC.
In assay [3] the test system is K. pneumoniae A20468. The assay is described as follows: In vitro MIC by tube dilution, K. pneumoniae A20468. Conditions: Klebsiella pneumoniae, read-out: MIC.
Assay [4] concerns E. cloacae A-9659. The assay is described as follows: In vitro MIC by tube dilution, E. cloacae A-9659. As to conditions: Enterobacter cloacae, read-out: MIC.
Assay [5] has as its system P. morganii A15153. The assay is described as follows: In vitro MIC by tube dilution, P. morganii (M. morganii) A15153. As to conditions: Morganella morganii, read-out: MIC.
In assay [6] the test system is P. aeruginosa A-9843A. Put plainly: In vitro MIC by tube dilution, P. aeruginosa A-9843A. Conditions: Pseudomonas aeruginosa, A9843A, read-out: MIC.
Assay [7] concerns K. pneumoniae A-9664. Put plainly: In vitro MIC by tube dilution, K. pneumoniae A-9664. Conditions: Klebsiella pneumoniae, A9664, read-out: MIC.
Assay [8] concerns S. aureus A15097 (Meth-res.). The assay is described as follows: In vitro MIC by tube dilution, S. aureus A15097 (Meth-res.). Conditions: Staphylococcus aureus.
Assay [9] has as its system P. mirabilis A-9900. Put plainly: In vitro MIC by tube dilution, P. mirabilis A-9900. Conditions: Proteus mirabilis, A9900, P. mirabilis A-9900; read-out: MIC.
Assay [10] concerns S. aureus A-9606 (Pen-res.). The assay is described as follows: In vitro MIC by tube dilution, S. aureus A-9606 (Pen-res.). As to conditions: Staphylococcus aureus, read-out: MIC.
In assay [11] the test system is S. marcescens A20019. Put plainly: In vitro MIC by tube dilution, S. marcescens A20019. As to conditions: Serratia marcescens, read-out: MIC.
The subject of assay [12] is S. pyogenes A9604. Put plainly: In vitro MIC by tube dilution, S. pyogenes A9604. As to conditions: Streptococcus pyogenes, A9604, S. pyogenes A-9604; read-out: MIC.
Assay [13] concerns E. coli A20341-1. Put plainly: In vitro MIC by tube dilution, E. coli A20341-1. As to conditions: Escherichia coli, A203411, read-out: MIC.
For assay [14], the system named is E. cloacae A-9656. Put plainly: In vitro MIC by tube dilution, E. cloacae A-9656. As to conditions: Enterobacter cloacae, A9656, E. cloacae A-9656; read-out: MIC.
Assay [15] has as its system E. coli A15119. The assay is described as follows: In vitro MIC by tube dilution, E. coli A15119. Conditions: Escherichia coli, read-out: MIC.
Assay [16] has as its system S. pneumoniae A-9585. Put plainly: In vitro MIC by tube dilution, S. pneumoniae A-9585. Conditions: Streptococcus pneumoniae, A9585, S. pneumoniae A-9585; read-out: MIC.
The test system of assay [17] is H. influenzae A-9833. The assay is described as follows: In vitro MIC by tube dilution, H. influenzae A-9833. As to conditions: Haemophilus influenzae, A9833.
In assay [18] the test system is H. influenzae A21518. Put plainly: In vitro MIC by tube dilution, H. influenzae A21518. As to conditions: Haemophilus influenzae.
Assay [19] relates to P. aeruginosa A21213. The assay is described as follows: In vitro MIC by tube dilution, P. aeruginosa A21213. Conditions: Pseudomonas aeruginosa, A21213, P. aeruginosa A21213; read-out: MIC.
For assay [20], the system named is S. faecalis A20688. The assay is described as follows: In vitro MIC by tube dilution, S. faecalis A20688. Conditions: Enterococcus faecalis, A20688, S. faecalis A20688; read-out: MIC.
The mark [21] stands for this setting: A9537, S. aureus A-9537, no serum.

The structures appear in SMILES notation. Converted amounts (≈) assume the structure as drawn. Where two headings read alike, the source gives them in different places.

Take `C[C@@H](O)[C@H]1C(=O)N2C(C(=O)[O-])=C(SCCc3cc[n+](C)cc3)C[C@H]12` [Example 2]: the MIC in assay [1] is 0.13 µg/mL (≈ 0.373 µM); in [2] (A9537, S. aureus A-9537 + 50% serum, overnight 37° C.), 0.016 µg/mL; in assay [2] (A9537, S. aureus A-9537, no serum, overnight 37° C.), 0.004 µg/mL (≈ 0.0115 µM); in assay [3] (A20468, K. pneumoniae A20468), 0.13 µg/mL (≈ 0.373 µM); in assay [4] (A9659, E. cloacae A9659) it was 0.13 µg/mL (≈ 0.373 µM); in assay [5] (A15153, P. morganii A15153), 0.06 µg/mL (≈ 0.172 µM). In addition, the MIC in [6] (P. aeruginosa A-9843A) is 8 µg/mL (≈ 23 µM); in assay [7], 0.06 µg/mL (≈ 0.172 µM); in [8] (S. aureus A15097 (Meth-res.), overnight 37° C.), 8 µg/mL (≈ 23 µM); in [9] it was 0.03 µg/mL (≈ 0.0861 µM); in assay [10] (S. aureus A-9606 (Pen-res.), overnight 37° C.) it was 0.008 µg/mL (≈ 0.023 µM); in assay [11], 0.03 µg/mL (≈ 0.0861 µM).
Regarding `C[C@@H](O)[C@H]1C(=O)N2C(C(=O)[O-])=C(SCCc3cccc[n+]3C)C[C@H]12` [Example 5, 3-(N-Methylpyridine-2-yl-ethanethio]-6α-[1-(R)-hydroxyethyl]-7-oxo-1-azabicyclo(3.2.0)hept-2-ene-2-carboxylate], the MIC in assay [1] turned out to be 0.13 µg/mL (≈ 0.373 µM); in assay [2] (A9537, S. aureus A-9537 +50% serum), 0.016 µg/mL (≈ 0.0459 µM); in [2] (setting [21]), 0.004 µg/mL (≈ 0.0115 µM); in assay [3] (A20468, K. pneumoniae A20468) it was 0.06 µg/mL (≈ 0.172 µM); in assay [4] (A9659, E. cloacae A-9659) it was 0.06 µg/mL (≈ 0.172 µM); in [5] (A15153, M. morganii A15153), 0.06 µg/mL (≈ 0.172 µM). Further, the MIC in assay [6] (P. aeruginosa A-9843a) came out at 4 µg/mL (≈ 11.5 µM); in assay [7], 0.03 µg/mL (≈ 0.0861 µM); in assay [12], 0.004 µg/mL (≈ 0.0115 µM); in [13] it was 0.016 µg/mL (≈ 0.0459 µM); in [8] (S. aureus A15097 (Meth-res)), 8 µg/mL (≈ 23 µM); in assay [14], 0.13 µg/mL (≈ 0.373 µM). Further, the MIC in assay [15] (A15119, E. coli A15119) was 0.016 µg/mL (≈ 0.0459 µM); in assay [9], 0.03 µg/mL (≈ 0.0861 µM); in assay [10] (S. aureus A-9606 (Pen-res)), 0.008 µg/mL (≈ 0.023 µM); in [16] it was 0.004 µg/mL (≈ 0.0115 µM); in assay [11], 0.06 µg/mL (≈ 0.172 µM).
As for `CCC[n+]1ccc(CSC2=C(C(=O)[O-])N3C(=O)[C@H]([C@@H](C)O)[C@H]3C2)cc1` [Example 6, 3-(1-Propylpyridine-4-yl-methanethio)-6α-[1-(R)-hydroethyl]-7-oxo-1-azabicyclo(3.2.0)hept-2-ene-2-carboxylate], the MIC was 0.03 µg/mL (≈ 0.0828 µM) in assay [2] (setting [21]); more than 32 µg/mL in [17]; 8 µg/mL (≈ 22.1 µM) in assay [6] (P. aeruginosa A-9843a); 0.004 µg/mL (≈ 0.011 µM) in [12]; 0.03 µg/mL (≈ 0.0828 µM) in assay [10] (S. aureus A-9606 (Pen-res)); 0.004 µg/mL (≈ 0.011 µM) in assay [16]. This compound came in with an MIC in assay [18] of more than 32 µg/mL.
Consider `C[C@@H](O)[C@H]1C(=O)N2C(C(=O)[O-])=C(SCc3n(C)cc[n+]3C)C[C@H]12` [Example 9, 3-(N,N'-Dimethylimidazole-2-yl-methanethio)-6α-[1-(R)-hydroxyethyl]-7-oxo-1-azabicyclo(3.2.0)hept-2-ene-2-carboxylate], for which the MIC in assay [1] is 0.06 µg/mL (≈ 0.178 µM); in assay [2] (setting [21]) it was 0.004 µg/mL (≈ 0.0119 µM); in [3] (K. pneumoniae A20468), 0.03 µg/mL (≈ 0.0889 µM); in assay [4] (A9659, E. cloacae A-9659) it was 0.03 µg/mL (≈ 0.0889 µM); in assay [5] (M. morganii A15153), 0.03 µg/mL (≈ 0.0889 µM); in assay [6] (P. aeruginosa A-9843a) it was 2 µg/mL (≈ 5.93 µM). The MIC in [7] was found to be 0.016 µg/mL (≈ 0.0474 µM); in assay [13] it was 0.004 µg/mL (≈ 0.0119 µM); in [14], 0.03 µg/mL (≈ 0.0889 µM); in assay [15] (E. coli A15119), 0.008 µg/mL (≈ 0.0237 µM); in [9] it was 0.016 µg/mL (≈ 0.0474 µM); in assay [11], 0.016 µg/mL (≈ 0.0474 µM). The MIC in assay [19] and in assay [20] was 0.13 µg/mL (≈ 0.385 µM) throughout.

The values above are taken from patent US4746736A, “Carbapenem antibiotics” (priority 1986, dated 1988).
